According to patent publication US20050207984A1, “Formoterol and ciclesonide aerosol formulations” (priority 2002, published 2005):

Assay: Chemical stability, ciclesonide related impurities by HPLC
Assay type: physicochemical
Details: 5 days at 50° C.
Experimental: MDI units from Example 2 were stored for 5 days at 50° C. in both valve-up and valve-down orientations (two units at each orientation). The samples were then tested for ciclesonide related impurities by High Performance Liquid Chromatography and the following results were obtained: […]

With `CC(C)C(=O)OCC(=O)[C@@]12O[C@H](C3CCCCC3)O[C@@H]1C[C@H]1[C@@H]3CCC4=CC(=O)C=C[C@]4(C)[C@H]3[C@@H](O)C[C@@]12C` [ciclesonide, 11β, 16α, 17, 21-tetrahydroxypregna 1,4-diene-3,20-dione, cyclic 16,17-acetal with cyclohexanecarboxaldehyde, 21-isobutyrate] the “chemical stability in the example formulation” value was “high degree of chemical stability”.
